In patent US7816390B2, “N-substituted tricyclic 3-aminopyrazoles as anti-mitotic tubulin polymerization inhibitors” (Janssen Pharmaceutica NV, priority 2008, dated 2010):
Values joined by “and” are separate entries in the source; they are usually repeats but may differ in a detail not shown here. Identical values can stand only once. Like-named read-outs stand apart in the source and are kept apart here.

Columns and labels:
bovine tubulin = assay: In vitro tubulin polymerization assay (CytoDYNAMIX Screen 03); format: biochemical; details: for effect on tubulin polymerization curve (Vmax): 10 μM; for IC50: 3 mg/mL bovine tubulin, absorbance at 340 nm, relative to Vmax of DMSO controls, read-out: IC50 for inhibition of tubulin polymerization
Description: Compounds were assayed in vitro for effects on tubulin polymerization using a commercially available assay kit from Cytoskeleton (CytoDYNAMIX Screen 03).
Methods: Briefly, this assay is based on the observation that light scattered by microtubules is proportional to the concentration of microtubule polymer. The standard polymerization reaction contains 100 μL volume of tubulin solution consisting of 3 mg/mL bovine tubulin in 80 mM PIPES pH 6.9, 0.5 mM EGTA, 2 mM MgCl2, 1 mM GTP and 10% glycerol. The tubulin solution (100 μL/well) is added rapidly to wells of a 96-well plate containing duplicate aliquots (10 μL) of experimental compounds in DMSO to achieve a final well concentration of 1.0 and 10 μM in a preliminary screening assay. Control wells contain the same final concentration of DMSO (<0.5%). Following initiation of the polymerization reaction by incubation at 37° C., absorbance at 340 nm is measured every minute for 60 minutes using a SpectraMax plate reader. […] Inhibition of tubulin polymerization by experimental compounds is calculated relative to the Vmax of the DMSO controls. A more detailed description of assay conditions and assay optimization can be found in the Assay Kit Instructions. The resulting polymerization curve (OD vs. Time in sec) is represented by three phases of microtubule polymerization, including nucleation (Phase I), microtubule growth (Phase II) and finally, steady-state equilibrium (Phase III). Compounds that interact (bind) with tubulin alter one or more of these characteristic phases of tubulin polymerization.

[1] = system: human tumor cell lines (AsPC-1, H460, PC3, T45D, A375, LoVo); assay: Tumor cell proliferation assay (14C-thymidine incorporation); format: cell-based
Description: (§1) The compound N-(3-ethoxyphenyl)-1,4-dihydro-6-ethoxy-7-(3-hydroxypropoxy)-1-methylindeno[1,2-c]pyrazole-3-amine was evaluated for direct effects on the growth of several human tumor cell lines derived from human cancers of varying origin (HeLa, cervical, H460 lung, LoVo colon, LnCAP and PC3 prostate lines, T47D breast, A375 melanoma, AsPC1 pancreatic and U87MG glioblastoma) and on the proliferation of normal human umbilical vein endothelial cells (HUVEC). Colchicine, nocodazole, doxorubicin and paclitaxel were evaluated as comparators.
(§2) Methods: Tumor cell anti-proliferative activity was assessed using standard in vitro cell proliferation assays in which the IC50 for inhibition of cell proliferation by a compound was measured using ^14C-thymidine incorporation into cellular DNA. Briefly, cells were plated into 96-well microplates and allowed to adhere overnight. Compound was added the next day and cells were incubated for an additional 24 hours. [^14C]-thymidine was allowed to incorporate into cellular DNA for 24 hours after which the plate was washed and counted in a scintillation counter.

[2] = system: human umbilical vein endothelial cells (HUVEC); assay: HUVEC proliferation assay (14C-thymidine incorporation); format: cell-based
Description: as §1, §2

[3] = system: tubulin (colchicine binding site); assay: Radiolabeled [3H]-colchicine competition SPA assay
[4] = system: tubulin (colchicine binding site); assay: ThermoFluor binding assay

COC(=O)Nc1nc2ccc(C(=O)c3cccs3)cc2[nH]1 [nocodazole]
effect on tubulin polymerization curve (Vmax) (bovine tubulin): significant decrease in the Vmax
IC50 (bovine tubulin): 1500 nM

CCOc1cccc(Nc2nn(C)c3c2Cc2cc(OCC)c(OCCCO)cc2-3)c1 [N-(3-ethoxyphenyl)-1,4-dihydro-6-ethoxy-7-(3-hydroxypropoxy)-1-methylindeno[1,2-c]pyrazole-3-amine]
fold less potent compared to paclitaxel ([1]; depending on the cell line examined): approximately 10 fold
IC50 ([1]; range over 6 of 6 human tumor cell lines (AsPC-1, H460, PC3, T45D, A375, LoVo), read-out: IC50 for inhibition of tumor cell proliferation): 2 to 10 nM
IC50 ([2]; read-out: IC50 for inhibition of LSGS-stimulated HUVEC growth): < 10 nM
IC50 ([2]; read-out: IC50 versus confluent, non-proliferating HUVEC cells): > 10000 nM
competition with [3H]-colchicine binding [3]: competed with [^3H]-colchicine binding in a manner similar to unlabeled colchicine
IC50 (bovine tubulin): 2400 nM and 2400 to 3700 nM
binding at the colchicine binding site [4]: binding of this compound at the colchicine binding site was also demonstrated

CC[C@]1(O)C[C@@H]2CN(CCc3c([nH]c4ccccc34)[C@@](C(=O)OC)(c3cc4c(cc3OC)N(C)[C@H]3[C@@](O)(C(=O)OC)[C@H](OC(C)=O)[C@]5(CC)C=CCN6CC[C@]43[C@@H]65)C2)C1 [vinblastine, reference compound]
competition with [3H]-colchicine binding [3]: no significant competition

CC(=O)O[C@H]1C(=O)[C@@]2(C)[C@H]([C@H](OC(=O)c3ccccc3)[C@]3(O)C[C@H](OC(=O)[C@H](O)[C@@H](NC(=O)c4ccccc4)c4ccccc4)C(C)=C1C3(C)C)[C@]1(OC(C)=O)CO[C@@H]1C[C@@H]2O [paclitaxel]
anti-proliferative potency ([1]; H460 lung, T47D breast, PC3 prostate and LoVo colon lines): sub-nM potency
effect on tubulin (bovine tubulin): stabilization of tubulin
effect on tubulin polymerization curve (Vmax) (bovine tubulin): dramatic enhancement of the Vmax of the growth phase
